Reference: the supplement of paper PMC11208160

Test: recombinant UMI read abundance after kanamycin selection (control-corrected) (log10(CPM+1)); higher = more efficient recombination; extreme values may be limits of the assay; sequences stand for … in AGTGCAGAGAAAATCGGCCAGTTTTCTCTGCCTGCAGTCCGCATGCCGTGGGACCCCTTGGGTTCTAACCTGTTGCCTAGATTTATGCAGCGGACTGCCTTTCTCCCAAAGTGATAAACCGG…AGGTTGGTTTCACT; site = the 11-nt donor
Protocol: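 Pooled E. coli donor-specificity screen for the IS621 bridge recombinase. Each library member carries a reprogrammed 11-nt donor and a full-length LE bridge RNA expressed in cis from the natural promoter, with a paired donor-binding loop (8-nt LDG + 4-nt RDG) and a target-binding loop fixed to T5. It is co-electroporated with a T5 target plasmid; recombinase is induced with 0.07 mM IPTG and recombinants are selected on kanamycin. UMIs are counted as CPM, averaged over two biological replicates and corrected by the unselected control. Molecule = full bridge RNA written as DNA, built from the T5 scaffold: LDG = donor specificity nt 1-8, RDG = reverse complement of nt 8-11.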
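Note: IS621 bridge recombinase in Escherichia coli cells against a fixed T5 target plasmid.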

Sequence | recombinant UMI read abundance (log10)
ACGTTTACATGGACCGGTTTTCCCGGTAATCCGTATTTGCT (site ACGTTTACTAG) | 2.06
ACGTTTACATGGACCGGTTTTCCCGGTAATCCGTATTTGCT (site CCGTTTACTAG) | 1.53
ACGTTTACATGGACCGGTTTTCCCGGTAATCCGTATTTGCT (site GCGTTTACTAG) | 0.666
ACGTTTACATGGACCGGTTTTCCCGGTAATCCGTATTTGCT (site TCGTTTACTAG) | 1.37
ACGTTTGCATGGACCGGTTTTCCCGGTAATCCGTATTTGTC (site ACGTTTGCTGA) | 1.45
ACTAAGTCATGGACCGGTTTTCCCGGTAATCCGTATTTGAG (site ACTAAGTCTCT) | 2.46
ACTACACCATGGACCGGTTTTCCCGGTAATCCGTATTTGCC (site ACTACACCTGG) | 0
ACTACAGCATGGACCGGTTTTCCCGGTAATCCGTATTTGAC (site ACTACAGCTGT) | 2.36
ACTACCCCATGGACCGGTTTTCCCGGTAATCCGTATTTGAC (site ACTACCCCTGT) | 0.736
ACTAGAACATGGACCGGTTTTCCCGGTAATCCGTATTTGGG (site ACTAGAACTCA) | 0.0109
ACTAGAACATGGACCGGTTTTCCCGGTAATCCGTATTTGGG (site ACTAGAACTCC) | 0.113
ACTAGAACATGGACCGGTTTTCCCGGTAATCCGTATTTGGG (site ACTAGAACTCG) | 0.00448
ACTAGAACATGGACCGGTTTTCCCGGTAATCCGTATTTGGG (site ACTAGAACTCT) | 0.0325
ACTAGAACATGGACCGGTTTTCCCGGTAATCCGTATTTGTG (site ACTAGAACTCA) | 1.35
ACTAGAACATGGACCGGTTTTCCCGGTAATCCGTATTTGTG (site ACTAGAACTCC) | 0.0298
ACTAGAACATGGACCGGTTTTCCCGGTAATCCGTATTTGTG (site ACTAGAACTCG) | 0.285
ACTAGAACATGGACCGGTTTTCCCGGTAATCCGTATTTGTG (site ACTAGAACTCT) | 0
ACTAGTGCATGGACCGGTTTTCCCGGTAATCCGTATTTGGA (site ACTAGTGCTAC) | 0
ACTAGTGCATGGACCGGTTTTCCCGGTAATCCGTATTTGGA (site ACTAGTGCTCC) | 0.0115
ACTAGTGCATGGACCGGTTTTCCCGGTAATCCGTATTTGGA (site ACTAGTGCTGC) | 0
ACTAGTGCATGGACCGGTTTTCCCGGTAATCCGTATTTGGA (site ACTAGTGCTTC) | 1.36
ACTATAGCATGGACCGGTTTTCCCGGTAATCCGTATTTGCA (site ACTATAGCTTG) | 1.94
ACTCAAGCATGGACCGGTTTTCCCGGTAATCCGTATTTGTT (site ACTCAAGCTAA) | 1.72
ACTCCAGCATGGACCGGTTTTCCCGGTAATCCGTATTTGTG (site ACTCCAGCTCA) | 0.753

Sequence | recombinant UMI read abundance (log10)
ACTCGAGCATGGACCGGTTTTCCCGGTAATCCGTATTTGCT (site ACTCGAGCTAG) | 1.64
ACTCTAGCATGGACCGGTTTTCCCGGTAATCCGTATTTGCC (site ACTCTAGCTGG) | 0
ACTGAATCATGGACCGGTTTTCCCGGTAATCCGTATTTGCC (site ACTGAATCTGG) | 2.1
ACTGCATCATGGACCGGTTTTCCCGGTAATCCGTATTTGGA (site ACTGCATCTTC) | 1.22
ACTGGAACATGGACCGGTTTTCCCGGTAATCCGTATTTGAG (site ACTAGAACTCT) | 1.69
ACTGGAACATGGACCGGTTTTCCCGGTAATCCGTATTTGAG (site ACTCGAACTCT) | 0.239
ACTGGAACATGGACCGGTTTTCCCGGTAATCCGTATTTGAG (site ACTGGAACTCT) | 2.11
ACTGGAACATGGACCGGTTTTCCCGGTAATCCGTATTTGAG (site ACTTGAACTCT) | 0.0249
ACTGGAGCATGGACCGGTTTTCCCGGTAATCCGTATTTGCT (site ACTGGAGCTAG) | 1.86
ACTGGATCATGGACCGGTTTTCCCGGTAATCCGTATTTGAG (site ACTGGATCTCT) | 2.41
ACTGGATCATGGACCGGTTTTCCCGGTAATCCGTATTTGCA (site ACAGTATCTTG) | 0.973
ACTGGATCATGGACCGGTTTTCCCGGTAATCCGTATTTGCA (site ACTGGATCTTG) | 1.64
ACTGGGACATGGACCGGTTTTCCCGGTAATCCGTATTTGAG (site ACTGGGACTCT) | 1.39
ACTGGTACATGGACCGGTTTTCCCGGTAATCCGTATTTGAA (site ACTGGTACTTT) | 1.1
ACTGTATCATGGACCGGTTTTCCCGGTAATCCGTATTTGAA (site ACAGTATCTTG) | 0
ACTGTATCATGGACCGGTTTTCCCGGTAATCCGTATTTGAA (site ACTGTATCTTT) | 1.99
ACTGTATCATGGACCGGTTTTCCCGGTAATCCGTATTTGCA (site ACAGTATCTTG) | 1.82
ACTGTATCATGGACCGGTTTTCCCGGTAATCCGTATTTGCA (site ACCGTATCTTG) | 1.91
ACTGTATCATGGACCGGTTTTCCCGGTAATCCGTATTTGCA (site ACGGTATCTTG) | 1.96
ACTGTATCATGGACCGGTTTTCCCGGTAATCCGTATTTGCA (site ACTGTATCTTG) | 2.57
ACTTAGACATGGACCGGTTTTCCCGGTAATCCGTATTTGGT (site ACTTAGACTAC) | 1.15
ACTTGATCATGGACCGGTTTTCCCGGTAATCCGTATTTGCG (site ACTTGATCTCG) | 1.57
ACTTTAACATGGACCGGTTTTCCCGGTAATCCGTATTTGGT (site ACTTTAACTAC) | 0.85
AGAAAAACATGGACCGGTTTTCCCGGTAATCCGTATTTGCA (site AGAAAAACTTG) | 2.23

Sequence | recombinant UMI read abundance (log10)
AGAAAAACATGGACCGGTTTTCCCGGTAATCCGTATTTGCA (site AGGAAGACTTG) | 0
AGAAAGGCATGGACCGGTTTTCCCGGTAATCCGTATTTGCC (site AGAAAGGCTAG) | 0
AGAAAGGCATGGACCGGTTTTCCCGGTAATCCGTATTTGCC (site AGAAAGGCTCG) | 0.784
AGAAAGGCATGGACCGGTTTTCCCGGTAATCCGTATTTGCC (site AGAAAGGCTGG) | 1.78
AGAAAGGCATGGACCGGTTTTCCCGGTAATCCGTATTTGCC (site AGAAAGGCTTG) | 1.79
AGAAAGGCATGGACCGGTTTTCCCGGTAATCCGTATTTGGT (site AGAAAGGCTAA) | 1.65
AGAAAGGCATGGACCGGTTTTCCCGGTAATCCGTATTTGGT (site AGAAAGGCTAC) | 0.881
AGAAAGGCATGGACCGGTTTTCCCGGTAATCCGTATTTGGT (site AGAAAGGCTAG) | 0.34
AGAAAGGCATGGACCGGTTTTCCCGGTAATCCGTATTTGGT (site AGAAAGGCTAT) | 0.986
AGAAAGGCATGGACCGGTTTTCCCGGTAATCCGTATTTGTT (site AGAAAGGCTAA) | 1.99
AGAAAGGCATGGACCGGTTTTCCCGGTAATCCGTATTTGTT (site AGAAAGGCTAC) | 0
AGAAAGGCATGGACCGGTTTTCCCGGTAATCCGTATTTGTT (site AGAAAGGCTAG) | 1.47
AGAAAGGCATGGACCGGTTTTCCCGGTAATCCGTATTTGTT (site AGAAAGGCTAT) | 0.97
AGAAAGTCATGGACCGGTTTTCCCGGTAATCCGTATTTGCA (site AGAAAGTCTTG) | 2.65
AGAAAGTCATGGACCGGTTTTCCCGGTAATCCGTATTTGCA (site AGGAAGACTTG) | 0
AGAAATCCATGGACCGGTTTTCCCGGTAATCCGTATTTGTT (site AGAAATCCTAA) | 0.589
AGAAATCCATGGACCGGTTTTCCCGGTAATCCGTATTTGTT (site CGGAATCCTAA) | 0.00278
AGAAATGCATGGACCGGTTTTCCCGGTAATCCGTATTTGAG (site AGAAATGCTCT) | 2.88
AGAAATGCATGGACCGGTTTTCCCGGTAATCCGTATTTGCC (site AGAAATGCTGG) | 1.67
AGAATGCCATGGACCGGTTTTCCCGGTAATCCGTATTTGAC (site AGAATGCCTGT) | 0
AGACACCCATGGACCGGTTTTCCCGGTAATCCGTATTTGCA (site AGACACCCTTG) | 1.15
AGACGAGCATGGACCGGTTTTCCCGGTAATCCGTATTTGCG (site AGACGAGCTCG) | 2.67
AGACTTGCATGGACCGGTTTTCCCGGTAATCCGTATTTGTA (site AGACTTGCTTA) | 0.887
AGAGCGACATGGACCGGTTTTCCCGGTAATCCGTATTTGTG (site AGAGCGACTCA) | 1.49
